Measured values published in ChEMBL document CHEMBL4004849, “Tetrazolylmethyl quinolines: Design, docking studies, synthesis, anticancer and antifungal analyses” (2017).
≈ marks a conversion by molar mass, not a printed value. Calls of active or inactive are those of the source. The rule behind the calls is not given here.

Legend:
Format in all cases: functional
HL-60(TB) = experiment: Growth inhibition of human HL-60(TB) cells at 10^-5 M incubated for 48 hrs by sulforhodamine B assay relative to control
MOLT-4 = experiment: Growth inhibition of human MOLT4 cells at 10^-5 M incubated for 48 hrs by sulforhodamine B assay relative to control
A549 = experiment: Growth inhibition of human A549/ATCC cells at 10^-5 M incubated for 48 hrs by sulforhodamine B assay relative to control
EKVX = experiment: Growth inhibition of human EKVX cells at 10^-5 M incubated for 48 hrs by sulforhodamine B assay relative to control
NCI-H23 = experiment: Growth inhibition of human NCI-H23 cells at 10^-5 M incubated for 48 hrs by sulforhodamine B assay relative to control
NCI-H460 = experiment: Growth inhibition of human NCI-H460 cells at 10^-5 M incubated for 48 hrs by sulforhodamine B assay relative to control
NCI-H522 = experiment: Growth inhibition of human NCI-H522 cells at 10^-5 M incubated for 48 hrs by sulforhodamine B assay relative to control
COLO 205 = experiment: Growth inhibition of human COLO205 cells at 10^-5 M incubated for 48 hrs by sulforhodamine B assay relative to control
HCC 2998 = experiment: Growth inhibition of human HCC2998 cells at 10^-5 M incubated for 48 hrs by sulforhodamine B assay relative to control
HCT-116 = experiment: Growth inhibition of human HCT116 cells at 10^-5 M incubated for 48 hrs by sulforhodamine B assay relative to control
HCT-15 = experiment: Growth inhibition of human HCT15 cells at 10^-5 M incubated for 48 hrs by sulforhodamine B assay relative to control
KM12 = experiment: Growth inhibition of human KM12 cells at 10^-5 M incubated for 48 hrs by sulforhodamine B assay relative to control
SW-620 = experiment: Growth inhibition of human SW620 cells at 10^-5 M incubated for 48 hrs by sulforhodamine B assay relative to control
SF-295 = experiment: Growth inhibition of human SF295 cells at 10^-5 M incubated for 48 hrs by sulforhodamine B assay relative to control
SF-539 = experiment: Growth inhibition of human SF539 cells at 10^-5 M incubated for 48 hrs by sulforhodamine B assay relative to control
SNB-19 = experiment: Growth inhibition of human SNB19 cells at 10^-5 M incubated for 48 hrs by sulforhodamine B assay relative to control
SNB-75 = experiment: Growth inhibition of human SNB75 cells at 10^-5 M incubated for 48 hrs by sulforhodamine B assay relative to control
U-251 = experiment: Growth inhibition of human U251 cells at 10^-5 M incubated for 48 hrs by sulforhodamine B assay relative to control
LOX IMVI = experiment: Growth inhibition of human LOXIMVI cells at 10^-5 M incubated for 48 hrs by sulforhodamine B assay relative to control
M14 = experiment: Growth inhibition of human M14 cells at 10^-5 M incubated for 48 hrs by sulforhodamine B assay relative to control
SK-MEL-2 = experiment: Growth inhibition of human SK-MEL-2 cells at 10^-5 M incubated for 48 hrs by sulforhodamine B assay relative to control
SK-MEL-28 = experiment: Growth inhibition of human SK-MEL-28 cells at 10^-5 M incubated for 48 hrs by sulforhodamine B assay relative to control
SK-MEL-5 = experiment: Growth inhibition of human SK-MEL-5 cells at 10^-5 M incubated for 48 hrs by sulforhodamine B assay relative to control
UACC-257 = experiment: Growth inhibition of human UACC257 cells at 10^-5 M incubated for 48 hrs by sulforhodamine B assay relative to control
UACC-62 = experiment: Growth inhibition of human UACC62 cells at 10^-5 M incubated for 48 hrs by sulforhodamine B assay relative to control
IGROV-1 = experiment: Growth inhibition of human IGROV1 cells at 10^-5 M incubated for 48 hrs by sulforhodamine B assay relative to control
OVCAR-4 = experiment: Growth inhibition of human OVCAR4 cells at 10^-5 M incubated for 48 hrs by sulforhodamine B assay relative to control
OVCAR-5 = experiment: Growth inhibition of human OVCAR5 cells at 10^-5 M incubated for 48 hrs by sulforhodamine B assay relative to control
OVCAR-8 = experiment: Growth inhibition of human OVCAR8 cells at 10^-5 M incubated for 48 hrs by sulforhodamine B assay relative to control
NCI/ADR-RES = experiment: Growth inhibition of human NCI-ADR-RES cells at 10^-5 M incubated for 48 hrs by sulforhodamine B assay relative to control
786-0 = experiment: Growth inhibition of human 786-0 cells at 10^-5 M incubated for 48 hrs by sulforhodamine B assay relative to control
ACHN = experiment: Growth inhibition of human ACHN cells at 10^-5 M incubated for 48 hrs by sulforhodamine B assay relative to control
RXF 393 = experiment: Growth inhibition of human RXF393 cells at 10^-5 M incubated for 48 hrs by sulforhodamine B assay relative to control
TK-10 = experiment: Growth inhibition of human TK10 cells at 10^-5 M incubated for 48 hrs by sulforhodamine B assay relative to control
UO-31 = experiment: Growth inhibition of human UO31 cells at 10^-5 M incubated for 48 hrs by sulforhodamine B assay relative to control
MCF7 = experiment: Growth inhibition of human MCF7 cells at 10^-5 M incubated for 48 hrs by sulforhodamine B assay relative to control
MDA-MB-231 = experiment: Growth inhibition of human MDA-MB-231/ATCC cells at 10^-5 M incubated for 48 hrs by sulforhodamine B assay relative to control
Hs-578T = experiment: Growth inhibition of human Hs 578T cells at 10^-5 M incubated for 48 hrs by sulforhodamine B assay relative to control
BT-549 = experiment: Growth inhibition of human BT549 cells at 10^-5 M incubated for 48 hrs by sulforhodamine B assay relative to control
T47D = experiment: Growth inhibition of human T47D cells at 10^-5 M incubated for 48 hrs by sulforhodamine B assay relative to control
MDA-MB-468 = experiment: Growth inhibition of human MDA-MB-468 cells at 10^-5 M incubated for 48 hrs by sulforhodamine B assay relative to control
Candida albicans [1] = experiment: Antifungal activity against Candida albicans at 100 ug/ml by disc diffusion method; conditions: read-out: IZ
Candida albicans [2] = experiment: Antifungal activity against Candida albicans after 24 hrs by serial dilution method
Aspergillus fumigatus = experiment: Antifungal activity against Aspergillus fumigatus after 24 hrs by serial dilution method

Clc1nc2ccc(Br)cc2cc1Cn1nnnc1CSc1ccccc1
growth inhibition (GI) (HL-60(TB)): Active
growth inhibition (GI) (MOLT-4): Active
growth inhibition (GI) (A549): Active
growth inhibition (GI) (EKVX): Active
growth inhibition (GI) (NCI-H23): Active
growth inhibition (GI) (NCI-H460): Active
growth inhibition (GI) (NCI-H522): Active
growth inhibition (GI) (COLO 205): Active
growth inhibition (GI) (HCC 2998): Active
growth inhibition (GI) (HCT-116): Active
growth inhibition (GI) (HCT-15): Active
growth inhibition (GI) (KM12): Active
growth inhibition (GI) (SW-620): Active
growth inhibition (GI) (SF-295): Active
growth inhibition (GI) (SF-539): Active
growth inhibition (GI) (SNB-19): Active
growth inhibition (GI) (SNB-75): Active
growth inhibition (GI) (U-251): Active
growth inhibition (GI) (LOX IMVI): Active
growth inhibition (GI) (M14): Active
growth inhibition (GI) (SK-MEL-2): Active
growth inhibition (GI) (SK-MEL-28): Active
growth inhibition (GI) (SK-MEL-5): Active
growth inhibition (GI) (UACC-257): Active
growth inhibition (GI) (UACC-62): Active
growth inhibition (GI) (IGROV-1): Active
growth inhibition (GI) (OVCAR-4): Active
growth inhibition (GI) (OVCAR-5): Active
growth inhibition (GI) (OVCAR-8): Active
growth inhibition (GI) (NCI/ADR-RES): Active
growth inhibition (GI) (786-0): Active
growth inhibition (GI) (ACHN): Active
growth inhibition (GI) (RXF 393): Active
growth inhibition (GI) (TK-10): Active
growth inhibition (GI) (UO-31): Active
growth inhibition (GI) (MCF7): Active
growth inhibition (GI) (MDA-MB-231): Active
growth inhibition (GI) (Hs-578T): Active
growth inhibition (GI) (BT-549): Active
growth inhibition (GI) (T47D): Active
growth inhibition (GI) (MDA-MB-468): Active
zone of inhibition at 100 µg/mL (Candida albicans [1]): 12 mm
MIC (Candida albicans [2]): 25 µg/mL (≈ 56 µM)
MIC (Aspergillus fumigatus): 5 µg/mL (≈ 11.2 µM)

Fc1ccc2nc(Cl)c(Cn3nnnc3Cc3ccccc3)cc2c1
growth inhibition (GI) (HL-60(TB)): Active
growth inhibition (GI) (MOLT-4): Active
growth inhibition (GI) (A549): Active
growth inhibition (GI) (EKVX): Active
growth inhibition (GI) (NCI-H23): Active
growth inhibition (GI) (NCI-H460): Active
growth inhibition (GI) (NCI-H522): Active
growth inhibition (GI) (COLO 205): Active
growth inhibition (GI) (HCC 2998): Active
growth inhibition (GI) (HCT-116): Active
growth inhibition (GI) (HCT-15): Active
growth inhibition (GI) (KM12): Active
growth inhibition (GI) (SW-620): Active
growth inhibition (GI) (SF-295): Active
growth inhibition (GI) (SF-539): Active
growth inhibition (GI) (SNB-19): Active
growth inhibition (GI) (SNB-75): Active
growth inhibition (GI) (U-251): Active
growth inhibition (GI) (LOX IMVI): Active
growth inhibition (GI) (M14): Active
growth inhibition (GI) (SK-MEL-2): Active
growth inhibition (GI) (SK-MEL-28): Active
growth inhibition (GI) (SK-MEL-5): Active
growth inhibition (GI) (UACC-257): Active
growth inhibition (GI) (UACC-62): Active
growth inhibition (GI) (IGROV-1): Active
growth inhibition (GI) (OVCAR-4): Active
growth inhibition (GI) (OVCAR-5): Active
growth inhibition (GI) (OVCAR-8): Active
growth inhibition (GI) (NCI/ADR-RES): Active
growth inhibition (GI) (786-0): Active
growth inhibition (GI) (ACHN): Active
growth inhibition (GI) (RXF 393): Active
growth inhibition (GI) (TK-10): Active
growth inhibition (GI) (UO-31): Active
growth inhibition (GI) (MCF7): Active
growth inhibition (GI) (MDA-MB-231): Active
growth inhibition (GI) (Hs-578T): Active
growth inhibition (GI) (BT-549): Active
growth inhibition (GI) (T47D): Active
growth inhibition (GI) (MDA-MB-468): Active
zone of inhibition at 100 µg/mL (Candida albicans [1]): 13 mm
MIC (Candida albicans [2]): 25 µg/mL (≈ 70.7 µM)
MIC (Aspergillus fumigatus): 10 µg/mL (≈ 28.3 µM)
